Data published in BigSolDB 2.1.

CC(C)(C)NC[C@H](O)COc1nsnc1N1CCOCC1.O=C(O)/C=C\C(=O)O
Conditions	solubility (mole fraction)
in 2-methyltetrahydrofuran, 293.2 K	0.0001
in 2-methyltetrahydrofuran, 303.2 K	0.00017
in 2-methyltetrahydrofuran, 313.2 K	0.00038
in 2-methyltetrahydrofuran, 323.2 K	0.00067
in 2-methyltetrahydrofuran, 333.2 K	0.0013
in acetone, 281.1 K	0.00048
in acetone, 288.3 K	0.00056
in acetone, 292.8 K	0.00065
in acetone, 301.9 K	0.00089
in acetone, 313.3 K	0.00121
in acetone, 323.1 K	0.00166
in cyrene, 284 K	0.00047
in cyrene, 286.1 K	0.00054
in cyrene, 289.8 K	0.00075
in cyrene, 292.4 K	0.001
in cyrene, 301.1 K	0.00146
in cyrene, 312.2 K	0.0023
in cyrene, 323.7 K	0.00379
in cyrene, 332 K	0.0055
in dimethyl isosorbide, 282.6 K	0.00022
in dimethyl isosorbide, 289.1 K	0.00034
in dimethyl isosorbide, 297.5 K	0.00052
in dimethyl isosorbide, 309.7 K	0.00072
in dimethyl isosorbide, 325.9 K	0.00117
in dimethyl isosorbide, 330.9 K	0.00151
in ethanol, 280.1 K	0.00105
in ethanol, 285 K	0.0012
in ethanol, 290.8 K	0.00145
in ethanol, 302.3 K	0.00217
in ethanol, 312.8 K	0.00319
in ethanol, 322.7 K	0.00471
in ethanol, 329.8 K	0.00648
in isopropanol, 279.5 K	0.00013
in isopropanol, 282.9 K	0.00014
in isopropanol, 290.9 K	0.00018
in isopropanol, 293.6 K	0.00025
in isopropanol, 298.8 K	0.00037
in isopropanol, 313.7 K	0.0006
in isopropanol, 321.7 K	0.00097
in isopropanol, 330.1 K	0.00143
in n-butanol, 278.3 K	0.00028
in n-butanol, 281.7 K	0.00034
in n-butanol, 284.8 K	0.00038
in n-butanol, 289.6 K	0.00049
in n-butanol, 303.2 K	0.00075
in n-butanol, 305.1 K	0.00087
in n-butanol, 309.1 K	0.00102
in n-butanol, 316.3 K	0.00144
in n-butanol, 321.4 K	0.00178
in n-butanol, 328.7 K	0.00251
in water, 286 K	0.00245
in water, 293.1 K	0.00277
in water, 300.5 K	0.00319
in water, 305 K	0.00352
in water, 313.9 K	0.00449
in water, 320.8 K	0.00572
in water, 325.8 K	0.00694
in water, 327.2 K	0.0074
